From ChEMBL document CHEMBL1201862, “PubChem BioAssay data set” (2004)
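Assay format: 96-well plates, 48-hour exposure. Abbreviation: GI50, concentration required for 50% inhibition of growth.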 Activity calls are given as the source filed them. Cut-off read from the data, not from the text of the source: active = GI50 up to about 1.1 µM and inactive = higher.

Key:
Assay in all cases: DTP human tumour cell line panel, 48 h
786-0 = tested on: 786-0
A498 = tested on: A498
A549 = tested on: A549
ACHN = tested on: ACHN
CAKI-1 = tested on: CAKI-1
CCRF-CEM = tested on: CCRF-CEM
COLO 205 = tested on: COLO 205
DU-145 = tested on: DU-145
EKVX = tested on: EKVX
HCC 2998 = tested on: HCC 2998
HCT-116 = tested on: HCT-116
HCT-15 = tested on: HCT-15
HL-60 = tested on: HL-60
HOP-62 = tested on: HOP-62
HOP-92 = tested on: HOP-92
HT-29 = tested on: HT-29
Hs-578T = tested on: Hs-578T
IGROV-1 = tested on: IGROV-1
K562 = tested on: K562
KM12 = tested on: KM12
LOX IMVI = tested on: LOX IMVI
M14 = tested on: M14
MCF7 = tested on: MCF7
MDA-MB-231 = tested on: MDA-MB-231
MDA-MB-435 = tested on: MDA-MB-435
MDA-N = tested on: MDA-N
MOLT-4 = tested on: MOLT-4
Malme-3M = tested on: Malme-3M
NCI-H226 = tested on: NCI-H226
NCI-H23 = tested on: NCI-H23
NCI-H460 = tested on: NCI-H460
NCI-H522 = tested on: NCI-H522
NCI/ADR-RES = tested on: NCI/ADR-RES
OVCAR-3 = tested on: OVCAR-3
OVCAR-4 = tested on: OVCAR-4
OVCAR-5 = tested on: OVCAR-5
OVCAR-8 = tested on: OVCAR-8
PC-3 = tested on: PC-3
RPMI-8226 = tested on: RPMI-8226
SF-268 = tested on: SF-268
SF-295 = tested on: SF-295
SF-539 = tested on: SF-539
SK-MEL-28 = tested on: SK-MEL-28
SK-MEL-2 = tested on: SK-MEL-2
SK-MEL-5 = tested on: SK-MEL-5
SK-OV-3 = tested on: SK-OV-3
SN12C = tested on: SN12C
SNB-19 = tested on: SNB-19
SNB-75 = tested on: SNB-75
SW-620 = tested on: SW-620
T47D = tested on: T47D
TK-10 = tested on: TK-10
U-251 = tested on: U-251
UACC-257 = tested on: UACC-257
UACC-62 = tested on: UACC-62
UO-31 = tested on: UO-31
RXF 393 = tested on: RXF 393
SR = tested on: SR

## CC(=O)N(CN1C(=O)CCC1C(=O)O)c1cccc(O)c1 (stereo not given)
786-0
  GI50: > 100 µM (inactive)
A498
  GI50: > 100 µM (inactive)
A549
  GI50: > 100 µM (inactive)
ACHN
  GI50: > 100 µM (inactive)
CAKI-1
  GI50: > 100 µM (inactive)
CCRF-CEM
  GI50: > 100 µM (inactive)
COLO 205
  GI50: > 100 µM (inactive)
DU-145
  GI50: > 100 µM (inactive)
EKVX
  GI50: > 100 µM (inactive)
HCC 2998
  GI50: > 100 µM (inactive)
HCT-116
  GI50: > 100 µM (inactive)
HCT-15
  GI50: > 100 µM
HL-60
  GI50: > 100 µM (inactive)
HOP-62
  GI50: > 100 µM (inactive)
HOP-92
  GI50: > 100 µM (inactive)
HT-29
  GI50: > 100 µM (inactive)
Hs-578T
  GI50: > 100 µM (inactive)
IGROV-1
  GI50: > 100 µM (inactive)
K562
  GI50: > 100 µM (inactive)
KM12
  GI50: > 100 µM (inactive)
LOX IMVI
  GI50: > 100 µM (inactive)
M14
  GI50: > 100 µM (inactive)
MCF7
  GI50: > 100 µM (inactive)
MDA-MB-231
  GI50: > 100 µM (inactive)
MDA-MB-435
  GI50: > 100 µM (inactive)
MDA-N
  GI50: > 100 µM (inactive)
MOLT-4
  GI50: > 100 µM (inactive)
Malme-3M
  GI50: > 100 µM (inactive)
NCI-H226
  GI50: > 100 µM (inactive)
NCI-H23
  GI50: > 100 µM (inactive)
NCI-H460
  GI50: > 100 µM (inactive)
NCI-H522
  GI50: > 100 µM (inactive)
NCI/ADR-RES
  GI50: > 100 µM (inactive)
OVCAR-3
  GI50: > 100 µM (inactive)
OVCAR-4
  GI50: > 100 µM (inactive)
OVCAR-5
  GI50: > 100 µM (inactive)
OVCAR-8
  GI50: > 100 µM (inactive)
PC-3
  GI50: > 100 µM (inactive)
RPMI-8226
  GI50: > 100 µM (inactive)
SF-268
  GI50: > 100 µM (inactive)
SF-295
  GI50: > 100 µM (inactive)
SF-539
  GI50: > 100 µM (inactive)
SK-MEL-28
  GI50: > 100 µM (inactive)
SK-MEL-2
  GI50: > 100 µM (inactive)
SK-MEL-5
  GI50: > 100 µM (inactive)
SK-OV-3
  GI50: > 100 µM (inactive)
SN12C
  GI50: > 100 µM (inactive)
SNB-19
  GI50: > 100 µM (inactive)
SNB-75
  GI50: > 100 µM (inactive)
SW-620
  GI50: > 100 µM (inactive)
T47D
  GI50: > 100 µM (inactive)
TK-10
  GI50: > 100 µM (inactive)
U-251
  GI50: > 100 µM (inactive)
UACC-257
  GI50: > 100 µM (inactive)
UACC-62
  GI50: > 100 µM (inactive)
UO-31
  GI50: > 100 µM (inactive)

## CC(=O)OC/C=C/Cn1ncc(=O)[nH]c1=O
A498
  GI50: > 100 µM (inactive)
A549
  GI50: > 100 µM (inactive)
ACHN
  GI50: > 100 µM (inactive)
CAKI-1
  GI50: > 100 µM (inactive)
CCRF-CEM
  GI50: > 10 µM (inactive)
COLO 205
  GI50: > 100 µM (inactive)
DU-145
  GI50: > 100 µM (inactive)
EKVX
  GI50: > 100 µM (inactive)
HCC 2998
  GI50: > 100 µM (inactive)
HCT-15
  GI50: > 100 µM
HL-60
  GI50: > 100 µM (inactive)
HOP-62
  GI50: > 100 µM (inactive)
HOP-92
  GI50: > 100 µM (inactive)
HT-29
  GI50: > 100 µM (inactive)
Hs-578T
  GI50: > 100 µM (inactive)
IGROV-1
  GI50: > 100 µM (inactive)
K562
  GI50: > 100 µM (inactive)
KM12
  GI50: > 100 µM (inactive)
LOX IMVI
  GI50: > 100 µM (inactive)
M14
  GI50: > 100 µM (inactive)
MCF7
  GI50: > 100 µM (inactive)
MDA-MB-231
  GI50: > 100 µM (inactive)
MDA-MB-435
  GI50: > 100 µM (inactive)
MDA-N
  GI50: > 100 µM (inactive)
MOLT-4
  GI50: > 100 µM (inactive)
Malme-3M
  GI50: > 100 µM (inactive)
NCI-H226
  GI50: > 100 µM (inactive)
NCI-H23
  GI50: > 10 µM (inactive)
NCI-H460
  GI50: > 100 µM (inactive)
NCI-H522
  GI50: > 100 µM (inactive)
NCI/ADR-RES
  GI50: > 100 µM (inactive)
OVCAR-3
  GI50: > 100 µM (inactive)
OVCAR-5
  GI50: > 100 µM (inactive)
OVCAR-8
  GI50: > 100 µM (inactive)
PC-3
  GI50: > 100 µM (inactive)
RPMI-8226
  GI50: > 100 µM (inactive)
RXF 393
  GI50: > 100 µM (inactive)
SF-268
  GI50: > 100 µM (inactive)
SF-539
  GI50: > 100 µM (inactive)
SK-MEL-28
  GI50: > 100 µM (inactive)
SK-MEL-2
  GI50: > 100 µM (inactive)
SK-MEL-5
  GI50: > 100 µM (inactive)
SN12C
  GI50: > 100 µM (inactive)
SNB-19
  GI50: > 100 µM (inactive)
SNB-75
  GI50: > 100 µM (inactive)
SW-620
  GI50: > 100 µM (inactive)
T47D
  GI50: > 100 µM (inactive)
U-251
  GI50: > 100 µM (inactive)
UO-31
  GI50: > 100 µM (inactive)

## O=C1C(=O)N(c2cccc(C(F)(F)F)c2)C(=S)N1c1ccccc1
786-0
  GI50: 33.3 µM (inactive)
A498
  GI50: 21.9 µM (inactive)
A549
  GI50: 33.3 µM (inactive)
ACHN
  GI50: 16.4 µM (inactive)
CAKI-1
  GI50: 29.2 µM (inactive)
CCRF-CEM
  GI50: 35.9 µM (inactive)
COLO 205
  GI50: 16.4 µM (inactive)
DU-145
  GI50: 22.2 µM (inactive)
EKVX
  GI50: 30.9 µM (inactive)
HCC 2998
  GI50: 42 µM (inactive)
HCT-116
  GI50: 31.7 µM (inactive)
HCT-15
  GI50: 19.1 µM
HL-60
  GI50: 32.7 µM (inactive)
HOP-62
  GI50: 34.2 µM (inactive)
HOP-92
  GI50: 19.1 µM (inactive)
HT-29
  GI50: 36.5 µM (inactive)
Hs-578T
  GI50: 27.9 µM (inactive)
IGROV-1
  GI50: 22.4 µM (inactive)
K562
  GI50: 34.5 µM (inactive)
KM12
  GI50: 31.4 µM (inactive)
LOX IMVI
  GI50: 1.91 µM (inactive)
MDA-MB-231
  GI50: 24.4 µM (inactive)
MDA-MB-435
  GI50: 27.4 µM (inactive)
MDA-N
  GI50: 25.5 µM (inactive)
MOLT-4
  GI50: 38 µM (inactive)
Malme-3M
  GI50: 31.8 µM (inactive)
NCI-H226
  GI50: 24.5 µM (inactive)
NCI-H23
  GI50: 25.5 µM (inactive)
NCI-H460
  GI50: 2.32 µM (inactive)
NCI-H522
  GI50: 6.44 µM (inactive)
NCI/ADR-RES
  GI50: 31.8 µM (inactive)
OVCAR-4
  GI50: 41.1 µM (inactive)
OVCAR-5
  GI50: 30 µM (inactive)
OVCAR-8
  GI50: 33.7 µM (inactive)
PC-3
  GI50: 30.8 µM (inactive)
RPMI-8226
  GI50: 36.2 µM (inactive)
RXF 393
  GI50: 27.7 µM (inactive)
SF-268
  GI50: 43.9 µM (inactive)
SF-295
  GI50: 31.5 µM (inactive)
SF-539
  GI50: 26.1 µM (inactive)
SK-MEL-28
  GI50: 28 µM (inactive)
SK-MEL-2
  GI50: 19.1 µM (inactive)
SK-MEL-5
  GI50: 17.9 µM (inactive)
SK-OV-3
  GI50: 19.3 µM (inactive)
SN12C
  GI50: 34.4 µM (inactive)
SNB-19
  GI50: 40.5 µM (inactive)
SNB-75
  GI50: 34.5 µM (inactive)
SR
  GI50: 37.2 µM (inactive)
SW-620
  GI50: 36.2 µM (inactive)
T47D
  GI50: 25.4 µM (inactive)
TK-10
  GI50: 2.84 µM (inactive)
U-251
  GI50: 31.6 µM (inactive)
UACC-257
  GI50: 25.8 µM (inactive)
UACC-62
  GI50: 14.9 µM (inactive)
UO-31
  GI50: 25.2 µM (inactive)
